# Like-named read-outs stand apart in the source and are kept apart here.
# Experiments:
# PfCRT^Dd2 = test: cell-based; format: cell-based, Plasmodium falciparum; conditions: for PfCRT-mediated [3H]CQ transport, trans-stimulation (% PfCRTDd2 control): PfCRTDd2 oocytes, normalised to oocyte type control; for [3H]CQ transport (% PfCRTDd2 control), trans-stimulation, PfCRTDd2: PfCRT-mediated component (background subtracted), mean ± SEM, SEM
# Summary of the method: (§1)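 Oocytes (ten per treatment, ≥4 independent frogs/days) were preloaded by injecting VF-6 in 25 nL ND96 at pH 5.0, 5.5, 6.0 or 7.0, or Na^+-free choline buffer, then uptake run 1.5 h, 27.5 °C, ND96 pH 5.5 by default. Internal concentrations assumed ~400 nL oocyte volume.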
# PfCRT^Ecu1110 = test: cell-based; format: cell-based, Plasmodium falciparum; conditions: for PfCRT-mediated [3H]CQ transport, trans-stimulation (% PfCRTEcu1110 control): PfCRTEcu1110 oocytes, normalised to oocyte type control; for [3H]CQ transport (% PfCRTDd2 control), trans-stimulation, PfCRTEcu1110: PfCRT-mediated component (background subtracted), sheet title says normalised to PfCRTDd2 control, mean ± SEM, SEM
# Summary of the method: as §1
# 7G8 strain = test: P. falciparum proliferation assay; format: cell-based, Plasmodium falciparum
# Procedure: (§2) Parasite proliferation was measured in 96-well plates using a fluorescent DNA-intercalating dye[68],[69]. Synchronous ring-stage parasite cultures (~1% haematocrit and 1% parasitaemia) were incubated with different concentrations of the test compound for 72 h at 37 °C and under reduced O2 conditions. The assay was terminated by freezing and thawing the samples, after which 100 μL of SYBR Safe DNA Gel Stain (Molecular Probes; 0.2 μL/mL) in a lysis buffer (20 mM Tris-HCl, 5 mM EDTA, 0.008% (w/v) saponin and 0.08% (v/v) Triton X-100; pH 7.5) was added to each well. The fluorescence from each well was measured using a Tecan Infinite M1000 PRO microplate reader (excitation wavelength 490 nm; emission wavelength 520 nm). The fluorescence values for the wells containing the highest concentration of the compound were averaged and this value was then subtracted from each of the well values obtained for that 96-well plate. The level of parasite proliferation in the presence of each compound concentration was expressed as a percentage of the proliferation measured in the absence of the compound. The IC50s were determined in SigmaPlot Windows Version 11.0 by a least-squares fit of the equation y = a/[1 + ([compound]/IC50)^c] to the data, where y is the percent parasite proliferation, a is the maximum change in the percent parasite proliferation, and c is a fitted constant. In all cases, five independent experiments were performed (on different days), and within each experiment measurements were averaged from three replicates.
# C6^7G8 parasites = test: P. falciparum proliferation assay; format: cell-based, Plasmodium falciparum
# Procedure: as §2
# 3D7 strain = test: P. falciparum proliferation assay; format: cell-based, Plasmodium falciparum
# Procedure: as §2
# C4^Dd2 parasites = test: P. falciparum proliferation assay; format: cell-based, Plasmodium falciparum
# Procedure: as §2
# Dd2 strain = test: P. falciparum proliferation assay; format: cell-based, Plasmodium falciparum
# Procedure: as §2
# [1] = biological target: T1, PfCRT^7G8 in C6^7G8 parasites (Plasmodium falciparum, UniProt Q8IBZ9, A220S/C72S/I351M/I356L/K76T/N326D); test: P. falciparum H+-efflux assay (rate of DV alkalinisation after concanamycin A); format: cell-based; conditions: C67G8; for Effect on rate of DV alkalinisation / H+ leak (in words): test solute 10 μM
# T1 construct: PfCRT also functions as a peptide transporter within its native environment of the DV membrane; expressed in transfected cells; host or cells: P. falciparum pfcrt transfectant line C6^7G8 (saponin-isolated trophozoites)
# T1 sequence (Q8IBZ9 1-424 C72S/K76T/A220S/N326D/I351M/I356L): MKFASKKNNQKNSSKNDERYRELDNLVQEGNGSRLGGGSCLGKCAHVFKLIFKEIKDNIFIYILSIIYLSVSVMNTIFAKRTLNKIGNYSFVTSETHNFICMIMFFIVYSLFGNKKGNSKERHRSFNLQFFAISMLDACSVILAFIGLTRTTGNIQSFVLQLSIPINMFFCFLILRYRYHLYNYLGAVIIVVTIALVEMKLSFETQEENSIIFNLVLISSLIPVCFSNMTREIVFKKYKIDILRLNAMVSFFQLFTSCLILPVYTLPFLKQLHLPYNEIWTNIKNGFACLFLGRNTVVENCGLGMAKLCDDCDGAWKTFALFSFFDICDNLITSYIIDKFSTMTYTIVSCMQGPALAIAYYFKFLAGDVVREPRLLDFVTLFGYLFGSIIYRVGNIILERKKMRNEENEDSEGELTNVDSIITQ
# C2^GC03 parasites = test: P. falciparum proliferation assay; format: cell-based; conditions: Plasmodium falciparum
# Procedure: as §2
# [2] = [test solute]i = 5 mM (intracellular)
# [3] = [test solute]i = 45 mM (intracellular; 30 mM for some solutes due to solubility)
# [4] = [test solute]i = 5 mM (injected)
# [5] = [test solute]i = 45 mM (30 mM for some solutes due to solubility)
SMILES,"PfCRT-mediated [3H]CQ transport, trans-stimulation (% PfCRTDd2 control) (PfCRT^Dd2; [2])","PfCRT-mediated [3H]CQ transport, trans-stimulation (% PfCRTDd2 control) (PfCRT^Dd2; [3])","[3H]CQ transport (% PfCRTDd2 control), trans-stimulation, PfCRTDd2 (PfCRT^Dd2; [4]) [% PfCRTDd2 control]","[3H]CQ transport (% PfCRTDd2 control), trans-stimulation, PfCRTDd2 (PfCRT^Dd2; [5]) [% PfCRTDd2 control]","PfCRT-mediated [3H]CQ transport, trans-stimulation (% PfCRTEcu1110 control) (PfCRT^Ecu1110; [2])","PfCRT-mediated [3H]CQ transport, trans-stimulation (% PfCRTEcu1110 control) (PfCRT^Ecu1110; [3])","[3H]CQ transport (% PfCRTDd2 control), trans-stimulation, PfCRTEcu1110 (PfCRT^Ecu1110; [4]) [% PfCRTEcu1110 control]","[3H]CQ transport (% PfCRTDd2 control), trans-stimulation, PfCRTEcu1110 (PfCRT^Ecu1110; [5]) [% PfCRTEcu1110 control]",Effect on rate of DV alkalinisation / H+ leak (in words) [1],further results
CSCC[C@H](N)C(=O)O [L-methionine],98 ± 4.1,97 ± 3.5,98 ± 4.1,97 ± 3.5,96 ± 1.4,98 ± 4.6,32 ± 1.1,33 ± 1.3,,
"CC(C)(C)NC(=O)[C@@H]1C[C@@H]2CCCC[C@@H]2CN1C[C@@H](O)[C@H](Cc1ccccc1)NC(=O)[C@H](CC(N)=O)NC(=O)c1ccc2ccccc2n1 [Saquinavir, saquinavir, reference compound]",,,,,,,,,increased the rate of DV alkalinisation,"IC50 (7G8 strain; Plasmodium falciparum, 72 h, read-out: IC50 (μM), parasite proliferation, Control, SEM): 4.7 ± 0.1 µM; IC50 (7G8 strain; read-out: IC50 (μM), parasite proliferation, + 1 μM VP, 7G8, + 1 μM verapamil, 72 h, mean ± SEM, n = 5): 2.2 ± 0.1 µM; IC50 (C6^7G8 parasites; Plasmodium falciparum, C67G8, 72 h, 37 °C, SYBR Safe, mean ± SEM, n = 5, read-out: IC50 (μM), parasite proliferation, Control): 4.2 ± 0.4 µM; IC50 (C6^7G8 parasites; read-out: IC50 (μM), parasite proliferation, + 1 μM VP, C67G8, + 1 μM verapamil, 72 h, mean ± SEM, n = 5): 2.3 ± 0.3 µM; IC50 (3D7 strain; Plasmodium falciparum, 3D7, 72 h, 37 °C, SYBR Safe, mean ± SEM, n = 5, read-out: IC50 (μM), parasite proliferation, Control): 7.4 ± 0.3 µM; IC50 (3D7 strain; read-out: IC50 (μM), parasite proliferation, + 1 μM VP, SEM): 5.9 ± 0.6 µM; IC50 (C4^Dd2 parasites; Plasmodium falciparum, DD2, C4Dd2, 72 h, 37 °C, SYBR Safe, mean ± SEM, n = 5, read-out: IC50 (μM), parasite proliferation, Control): 3.5 ± 0.5 µM; IC50 (C4^Dd2 parasites; read-out: IC50 (μM), parasite proliferation, + 1 μM VP, C4Dd2, + 1 μM verapamil, 72 h, mean ± SEM, n = 5): 1.9 ± 0.1 µM; IC50 (Dd2 strain; Plasmodium falciparum, DD2, 72 h, read-out: IC50 (μM), parasite proliferation, Control, SEM): 3.3 ± 0.2 µM; IC50 (Dd2 strain; read-out: IC50 (μM), parasite proliferation, + 1 μM VP, Dd2, + 1 μM verapamil, 72 h, mean ± SEM, n = 5): 2.1 ± 0.3 µM; Maximum rate of peptide mimic-induced DV alkalinization ([1]; mean ± SEM, n = 5, SEM): 0.022 ±0.004 fluorescence ratio/s; IC50 (C2^GC03 parasites; 72 h, read-out: IC50 (μM), parasite proliferation, + 1 μM VP, SEM): 5.1 ± 0.2 µM; IC50 (C2^GC03 parasites; C2GC03, 72 h, 37 °C, SYBR Safe, mean ± SEM, n = 5, read-out: IC50 (μM), parasite proliferation, Control): 6.8 ± 0.4 µM"
N[C@@H](Cc1c[nH]cn1)C(=O)O [L-histidine],99 ± 3.9,95 ± 2.5,99 ± 3.9,95 ± 2.5,98 ± 2.8,97 ± 4.1,33 ± 2.2,32 ± 1.6,without effect,

# — publication PMC7413254 (Nature Communications, 2020)
